Laboratory results as given in patent publication US20080199846A1, “Poultry semen extender” (priority 2007, published 2008).

Tested on: 24 h-stored turkey semen
Assay: Fertility evaluation: artificial insemination of hens with 24 h-stored turkey semen
Type: in vivo
Settings: for fertility of 24 h-stored semen versus control stored semen: 0.5, 2.5 or 10.0 mg/ml PC, wks 1-7 of egg production
From the text: Materials and Methods. Animals: LargeWhite breeder poults were purchased from a primary breeder and maintained under standard management conditions during the brooding and growing periods. At 28 wk of age, toms were photostimulated by increasing light exposure from a 12:12 to a 14:10 light:dark cycle to initiate semen production. Using the abdominal massage semen collection method (Burrows, W. H., and J. P. Quinn, Poult. Sci., 14: 251-254 (1935)), toms were pre-milked at 30 wk of age and then screened for semen quality at 31 and 32 wk of age prior to being designated to sperm storage treatment groups. At 32 wk of age, hens were photostimulated by increasing the daily light exposure from 6:18 to 14:10 h (light:dark) to initiate ovarian development and egg production. Hens were inseminated on Days 10 and 12 after photostimulation and then once per week for the next 12 wk of egg production. A total of 10 toms and 76 hens were used for each experimental replicate.
Semen Collection, Evaluation and Storage: Semen was collected weekly from toms and evaluated for volume, sperm concentration, sperm viability, and sperm mobility. Fresh semen was aliquoted for the control and 3 sperm treatments. Control semen was extended 1:1 with Beltsville Poultry Semen Extender (BPSE), while treated semen was extended 1:1 with BPSE supplemented with 0.5, 2.5 or 10.0 mg/ml phosphatidylcholine (PC). Extended semen was transferred to 48-well culture plates. Multiwell plates were placed in a room temperature water bath on an orbital shaker (125 rpm) and slowly cooled to 4° C. with lids loosely fitted to ensure air availability during agitation. Semen was maintained under these conditions for 24 h.
Fertility Evaluation: A total of 304 hens (76/replicate) were artificially inseminated weekly with semen stored with 0.5 mg PC/ml (n=19), 2.5 mg PC/ml (n=19), 10 mg PC/ml (n=19) or without PC (control, n=19). An additional set of hens were inseminated weekly with stored semen containing 2.5 mg/ml PC and either 0.5 mM, 5.0 mM, or 50 mM ZnCl2; prior to insemination, semen stored in the presence of ZnCl2 was treated with EDTA to chelate Zn ions and restore sperm motility. The inseminant dose for all treatments was 150×10^6 sperm. This sperm number is less than that typically inseminated for commercial production; however, I desired a system sufficiently sensitive to detect even small changes in fertility due to sperm treatment. Eggs were candled after 7 d of incubation to determine true fertility and allowed to hatch to determine hatchability. Fertility trials were replicated 4 times using different flocks.
Statistical Analysis: Prior to analysis, data were checked to determine if a transformation was necessary. As expected, variables scored as percents (e.g., fertility) required transformation. I used the standard variance stabilizing arcsine transformation, y=arcsine (√(x)), where x represents the data, recorded as a proportion, and y is the scale used in the analysis. This transformation stabilized the variances sufficiently to proceed with an analysis in a mixed models framework. Software for conducting mixed models analyses in non-Gaussian frameworks, e.g., logistic regression, is not yet readily available. The mixed models I developed, estimated using Proc Mixed (SAS Institute, 1999), considered sperm treatment and week of study as fixed factors, with hen as a random factor. In addition, since data were taken from the same individuals repeatedly, thus inducing correlation, I allowed for within-individual time series correlation using an autoregressive structure. To ensure that my sample size and design had sufficient power to accurately determine the effects of the sperm treatments, I did a small simulation study prior to finalizing the design. Power was reassessed once the study was complete, and I report those results below. I used the default REML estimation method in Proc Mixed. […]

Compound | hens producing 100% fertile eggs versus any other stored semen treatment (2.5 mg/ml PC, first 7 wks of egg production, p<0.05) | percentage of hens laying all (100%) fertile eggs versus any other sperm treatment group (2.5 mg/ml PC, wks 2-7, p<0.05) | predictability of fertility versus the other concentrations (10 mg/ml) | fertility rates during egg production (10 mg/ml PC treatment) | fertility rates versus 0.5 or 2.5 mg/ml PC treatments (10 mg/ml PC, at 1, 2 8, 10, 11, and 12 wks, p<0.05) | percentage of hens laying all unfertilized eggs versus any other sperm treatment group (10.0 mg/ml PC, wks 4 and 10, p<0.05) | fertility of 24 h-stored semen versus control stored semen (p<0.05) | fertility of 24 h-stored semen versus control stored semen (p<0.05, listed as phosphatidycholine) | fertility of stored turkey semen (0.5 or 2.5 mg/ml, first 12 wks of egg production) | fertility rates, 0.5 versus 2.5 mg/ml PC treatments (throughout egg production except wks 7 and 12, p>0.05) | fertility of 2.5 mg/ml PC treatment versus 0.5 mg/ml (wks 7 and 12, p<0.05) | fertility rates versus 5.0 or 50 mM ZnCl2 (0.5 mM ZnCl2, semen with 2.5 mg/ml PC, EDTA before insemination, p<0.05) | true fertility of 24 h-stored semen versus other ZnCl2 treatments or control semen (5.0 mM ZnCl2, wks 1-7, p<0.05)
phosphatidylcholine [PC] | more | more | less predictable fertility | varied widely | Lower | more | improved | higher | improved | similar | higher |  | 
[Cl-].[Cl-].[Zn+2] [ZnCl2] |  |  |  |  |  |  |  |  |  |  |  | Higher | higher
